# From US20200085047A1, “Use of an Acyclic Picolinamide Compound as a Fungicide for Control of Phytopathogenic Fungi in Vegetables” (Dow AgroSciences LLC, priority 2017, published 2020)
# How the values were obtained:
# Assay type in all cases: in vivo
# Mycovellosiella fulva = test: Field assessment of Mycovellosiella fulva (FULVFU) on tomato, curative; settings: 10% SC; for Percent control based on AUDPC, FULVFU, adjuvant II: Agnique BP420 (50% w/w at 0.3% v/v); for Percent control based on AUDPC, FULVFU, adjuvant I: no adjuvant
# Text: Field assessment of Mycovellosiella fulva (FULVFU) on tomato:
# A 10% SC formulation of compound I was tanked mixed with four different adjuvants: Agnique BP420 (50% w/w at 0.3% v/v); Trycol (50% w/w at 0.1% v/v); Ethomeen T18H (50% w/w at 0.2% v/v); and Phase II (50% w/w at 0.2% v/v). A fungicidal treatment containing formulations of compound I, either alone or with adjuvants, was sprayed on tomato plants four times, the first application approximately 3 months after planting, with the following three applications in 7-10 day intervals. Formulations of compound I were applied at rates of 50, 100, 150 and 200 grams of active ingredient per hectare (g ai/ha). The experimental plots were inoculated with the leaf mold pathogen 7 days before the first application (curative). The treatment was part of an experimental trial designed as a randomized complete block with four replications and a plot of approximately 2.5×1.4 m. Formulations of compound I were applied at water volume of 675 L/ha.
# Disease severity was recorded as a percentage of visual diseased foliage (6 random plants per plot). Tomato leaf mold infection was assessed five times at 7 days after the first application (7 DAAA), 7 DAAB, 5 DAAC, followed by 7 and 12 DAAD. Area under the disease progress curve (AUDPC) was calculated for each plot using the sets of recorded severity data. Relative AUDPC (% control based on AUDPC) was calculated as percent of the nontreated control.
# Erysiphe cichoracearum = test: Field assessment of Erysiphe cichoracearum (ERYSCI) on cucumber, 2 day curative; settings: 5% EC + Trycol
# Text: Field Assessment of Erysiphe Cichoracearum (ERYSCI) on Cucumber:
# In the curative trial, a fungicidal treatment containing a 5% EC formulation of compound I plus an adjuvant (Trycol, 50% w/w at 0.2% v/v), was sprayed on cucumber plants (CUMSA) twice, the first application at the fruiting stage 29 days after planting, with the second application after 7 days. Formulations of compound I were applied at rates of 50, 100 and 150 grams of active ingredient per hectare (g ai/ha). The experimental plots were inoculated with the powdery mildew pathogen 2 days before the first application (curative). The treatment was part of an experimental trial designed as a randomized complete block with four replications and a plot of approximately 2×1 m, with formulations of compound I being applied at water volume of 1200 L/ha based on seedling sizes.
# Disease severity was assessed as percent diseased area of cucumber foliage per plant (6 plants per plot randomly). Powdery mildew disease severity was assessed four times, 7 days after application A (DAAA), plus 7, 14 and 21 DAAB. Area under the disease progress curve (AUDPC) was calculated for each plot using the sets of recorded visual infection data. Relative AUDPC (% control based on AUDPC) was calculated as percent of the nontreated control.
# Colletotrichum capsici = test: Field assessment of Colletotrichum capsici (COLLCA) on hot peppers, 4 day curative; settings: 5% EC + Trycol, hot pepper
# Text: Field Assessment of Colletotrichum capsici (COLLCA) on Hot Peppers:
# For the 4 day curative trial, a fungicidal treatment containing a 5% EC formulation of compound I plus an adjuvant (Trycol, 50% w/w at 0.2% v/v), was sprayed on hot pepper plants (CPSAN) twice, the first application at the flowering and fruiting stage 59 days after planting, with the second application after 7 days. Formulations of compound I were applied at rates of 50, 100, 150 and 200 grams of active ingredient per hectare (g ai/ha). The experimental plots were inoculated with the anthracnose pathogen 4 days before the first application (curative). The treatment was part of an experimental trial designed as a randomized complete block with four replications and a plot of approximately 2×1 m, with formulations of compound I being applied at water volume of 1200 L/ha.
# (§1) Disease severity was assessed as the percent fruit area diseased per plant (6 plants per plot randomly). Anthracnose infection was assessed four times, 7 days after application A (DAAA), plus 7, 14 and 21 DAAB. Area under the disease progress curve (AUDPC) was calculated for each plot using the sets of recorded visual infection data. Relative AUDPC (% control based on AUDPC) was calculated as percent of the nontreated control.
# Sclerotinia sclerotiorum = test: Field assessment of Sclerotinia sclerotiorum (SCLESC) on lettuce, 2 day protectant; settings: 5% EC + Trycol
# Text: Field Assessment of Sclerotinia sclerotiorum (SCLESC) on Lettuce:
# A fungicidal treatment containing a 5% EC formulation of compound I plus an adjuvant (Trycol, 50% w/w at 0.2% v/v), was sprayed on head lettuce plants (LACSC) twice, the first application at the heading stage 36 days after planting, and the second application 7 days later. Formulations of compound I were applied at rates of 50, 100, and 150 grams of active ingredient per hectare (g ai/ha). The experimental plots were inoculated with sclerotinia rot pathogen 2 days after the first application. The treatment was part of an experimental trial designed as a randomized complete block with four replications and a plot of approximately 2×1 m, with formulations of compound I being applied at water volume of 800 L/ha.
# as §1, with “infection percentage” for “severity”, “calculated by” for “assessed as”, “equation (stem lesion lengths)/(total stem lengths)×100%” for “percent fruit area diseased”, “Sclerotinia rot” for “Anthracnose”, “(DAAA)” for “(DAAA),”
smiles,measurement,setting,value
"COc1ccnc(C(=O)N[C@@H](C)C(=O)O[C@@H](C)C(c2ccc(F)cc2)c2ccc(F)cc2)c1OC(C)=O [Compound I, (S)-1,1-bis(4-fluorophenyl)propan-2-yl (3-acetoxy-4-methoxypicolinoyl)-L-alaninate]","Percent control based on AUDPC, FULVFU, adjuvant II",Mycovellosiella fulva; 50 g ai/ha,A (76-100)
same,"Percent control based on AUDPC, FULVFU, adjuvant I",Mycovellosiella fulva; 50 g ai/ha,C (26-50)
same,"Percent control based on AUDPC, FULVFU, adjuvant II",Mycovellosiella fulva; 100 g ai/ha,A (76-100)
same,"Percent control based on AUDPC, FULVFU, adjuvant IV","Mycovellosiella fulva; 100 g ai/ha, Ethomeen T18H (50% w/w at 0.2% v/v)",B (51-75)
same,"Percent control based on AUDPC, FULVFU, adjuvant V","Mycovellosiella fulva; 100 g ai/ha, Phase II (50% w/w at 0.2% v/v)",A (76-100)
same,"Percent control based on AUDPC, FULVFU, adjuvant III","Mycovellosiella fulva; 100 g ai/ha, Trycol (50% w/w at 0.1% v/v)",A (76-100)
same,"Percent control based on AUDPC, FULVFU, adjuvant I",Mycovellosiella fulva; 100 g ai/ha,C (26-50)
same,"Percent control based on AUDPC, FULVFU, adjuvant II",Mycovellosiella fulva; 150 g ai/ha,A (76-100)
same,"Percent control based on AUDPC, FULVFU, adjuvant II",Mycovellosiella fulva; 200 g ai/ha,A (76-100)
same,"Percent control based on AUDPC, ERYSCI 2 DC",Erysiphe cichoracearum; 50 g ai/ha,A (76-100)
same,"Percent control based on AUDPC, ERYSCI 2 DC",Erysiphe cichoracearum; 100 g ai/ha,B (51-75)
same,"Percent control based on AUDPC, ERYSCI 2 DC",Erysiphe cichoracearum; 150 g ai/ha,C (26-50)
same,"Percent control based on AUDPC, COLLCA 4 DC",Colletotrichum capsici; 50 g ai/ha,C (26-50)
same,"Percent control based on AUDPC, COLLCA 4 DC",Colletotrichum capsici; 100 g ai/ha,B (51-75)
same,"Percent control based on AUDPC, COLLCA 4 DC",Colletotrichum capsici; 150 g ai/ha,B (51-75)
same,"Percent control based on AUDPC, COLLCA 4 DC",Colletotrichum capsici; 200 g ai/ha,B (51-75)
same,"Percent control based on AUDPC, SCLESC 2 DP",Sclerotinia sclerotiorum; 50 g ai/ha,B (51-75)
same,"Percent control based on AUDPC, SCLESC 2 DP",Sclerotinia sclerotiorum; 100 g ai/ha,A (76-100)
same,"Percent control based on AUDPC, SCLESC 2 DP",Sclerotinia sclerotiorum; 150 g ai/ha,A (76-100)
